Source: patent US20260274814A1, “THIENYL COMPOUNDS FOR THE TREATMENT OF A CENTRAL NERVOUS SYSTEM DISEASE OR DISORDER” (Coreterra Therapeutics, Inc., priority 2023, published 2026)
Counter-ions that a name gives are not always drawn.

Tested on: mice
Assay: Neuropharmacological Assay (SmartCube): automated behavioral signature of compound-treated mice compared with a database of reference drug classes
Format: in vivo
Settings: for MED (minimal effective dose) / minimal effective dose: dose having 45% or more total activity in SmartCube, i.p., if only one dose was tested, that dose is shown; for AG / AN / AP / CE / HL / MS / PS / SH / AD / AX / UK: probability that activity matches this class of agents, 3.0 mg/kg i.p., 15 min before test; for minimal effective dose: Mus musculus, ip, read-out: MED (minimal effective dose)
From the text: Neurosci. 2011 Sep. 9; 5: 103 (doi: 10.3389/fnins.2011.00103) (“Roberds”). As reported in Roberds, because psychiatric diseases generally result from disorders of cell-cell communication or circuitry, intact systems are useful in detecting improvement in disease-relevant endpoints. These endpoints are typically behavioral in nature, often requiring human observation and interpretation. To facilitate testing of multiple compounds for behavioral effects relevant to psychiatric disease, PsychoGenics, Inc. (Tarrytown, NY, “PGI”) developed SmartCube™ an automated system in which behaviors of compound-treated mice are captured by digital video and analyzed with computer algorithms. (D. Brunner et al. Drug Discov. Today 2002, 7:S107-S112). PGI Analytical Systems uses data from SmartCube™ to compare the behavioral signature of a test compound to a database of behavioral signatures obtained using a large set of diverse reference compounds. (The composition of the database as well as validation of the method is further described in Roberds). In this way, the neuropharmacological effects of a test compound can be predicted by similarity to major classes of compounds, such as antipsychotics, anxiolytics and antidepressants.
The SmartCube™ system produces an activity signature indicating the probability that the activity of the test compound at the administered dose matches a given class of neuropharmacological agents. (See, e.g., Roberds, FIGS. 2 and 3). The test compound is simultaneously compared against multiple classes of agents; thus, a separate probability is generated for each behavioral effect measured (e.g., anxiolytic activity, analgesic activity, etc.). In table 2 below, these probabilities are reported for each behavioral effect measured as described in Table 1 below.
Provided compounds were dissolved in a mixture of Pharmasolve™ (N-methyl-2-pyrrolidone), polyethylene glycol and propylene glycol, and were injected i.p. 15 min. before the behavioral test. For each compound, injections were administered at 3 different doses. For each behavioral effect measured, results for the 3.0 mg/kg dose are presented. The potency of many of the compounds in the table was also determined in the SmartCube™ system. Test compounds were routinely examined at dose levels of 0.3, 1, 3 and 10 mg per kg (mpk), although the dose range was increased or decreased, if necessary, to obtain a full dose response curve. A compound's minimal effective dose (MED) is a measure of the compound's potency. The MED was defined as the dose (in mpk) having 45% or more total activity in SmartCube. If only one dose was tested, that dose is shown in the MED column of Table 2 even though the dose is not known to be the MED.

| Compound | MED (minimal effective dose) (hydrochloride) [mpk] | AG | AN | AP | CE | HL | MS | PS | SH | AD (hydrochloride, 3 mg/kg) | AX (hydrochloride, 3 mg/kg) | UK (hydrochloride, 3 mg/kg) | UK | AP (hydrochloride, 3 mg/kg) | CE (hydrochloride, 3 mg/kg) | SH (hydrochloride, 3 mg/kg) | minimal effective dose [mg/kg] | PS (hydrochloride, 3 mg/kg) | AX | AD |
| --- | --- | --- | --- | --- | --- | --- | --- | --- | --- | --- | --- | --- | --- | --- | --- | --- | --- | --- | --- | --- |
| CNC1CCc2c(F)sc(F)c2C1 (single isomer, unassigned) [Compound 77, 1,3-difluoro-N-methyl-4,5,6,7-tetrahydro-2-benzothiophen-5-amine hydrochloride] | 0.3 | ND (^ <4%) | ND (^ <4%) | ++ (≥24%) | ND (^ <4%) | ND (^ <4%) | ND (^ <4%) | ND (^ <4%) | ND (^ <4%) | ++ (≥24%) | + (≥4%) | ND (^ <4%) | – | – | – | – | – | – | – | – |
| CNC1CCc2c(F)sc(F)c2C1 (single isomer, unassigned) [Compound 78, 1,3-difluoro-N-methyl-4,5,6,7-tetrahydro-2-benzothiophen-5-amine hydrochloride] | 1 | ND (^ <4%) | ND (^ <4%) | ++ (≥24%) | ND (^ <4%) | ND (^ <4%) | ND (^ <4%) | ND (^ <4%) | ND (^ <4%) | ND (^ <4%) | ++ (≥24%) | + (≥4%) | – | – | – | – | – | – | – | – |
| CNC1CCc2cc(F)sc2C1 (single isomer, unassigned) [Compound 80, 2-fluoro-N-methyl-4,5,6,7-tetrahydrobenzothiophen-6-amine hydrochloride] | 3 | ND (^ <4%) | ND (^ <4%) | – | ND (^ <4%) | ND (^ <4%) | ND (^ <4%) | ND (^ <4%) | ND (^ <4%) | ++ (≥24%) | + (≥4%) | – | ND (^ <4%) | + (≥4%) | – | – | – | – | – | – |
| CNC1CCc2cc(F)sc2C1 (single isomer, unassigned) [Compound 81, 2-fluoro-N-methyl-4,5,6,7-tetrahydrobenzothiophen-6-amine hydrochloride] | 1 | ND (^ <4%) | ND (^ <4%) | – | ND (^ <4%) | ND (^ <4%) | ND (^ <4%) | ND (^ <4%) | ND (^ <4%) | ND (^ <4%) | ND (^ <4%) | – | ND (^ <4%) | ++++ (≥74%) | – | – | – | – | – | – |
| CNC1CCc2c(F)csc2C1 (single isomer, unassigned) [Compound 83, 3-fluoro-N-methyl-4,5,6,7-tetrahydrobenzothiophen-6-amine hydrochloride] | 1 | ND (^ <4%) | ND (^ <4%) | – | – | ND (^ <4%) | ND (^ <4%) | ND (^ <4%) | – | ND (^ <4%) | + (≥4%) | – | ND (^ <4%) | +++ (≥49%) | + (≥4%) | ND (^ <4%) | – | – | – | – |
| CNC1CCc2c(F)csc2C1 (single isomer, unassigned) [Compound 84, 3-fluoro-N-methyl-4,5,6,7-tetrahydrobenzothiophen-6-amine hydrochloride] | 0.1 | ND (^ <4%) | ND (^ <4%) | – | – | ND (^ <4%) | ND (^ <4%) | ND (^ <4%) | – | + (≥4%) | ND (^ <4%) | – | ND (^ <4%) | ND (^ <4%) | ND (^ <4%) | +++ (≥49%) | – | – | – | – |
| CC1(N)CCc2ccsc2C1 (single isomer, unassigned) [Compound 111, 6-methyl-5,7-dihydro-4H-benzothiophen-6-amine hydrochloride] | – | ND (^ <4%) | ND (^ <4%) | ND (^ <4%) | ND (^ <4%) | ND (^ <4%) | ND (^ <4%) | – | ND (^ <4%) | ++ (≥24%) | ++ (≥24%) | – | ND (^ <4%) | – | – | – | 3 | + (≥4%) | – | – |
| CC1(N)CCc2ccsc2C1 (single isomer, unassigned) [Compound 112, 6-methyl-5,7-dihydro-4H-benzothiophen-6-amine hydrochloride] | >3 | ND (^ <4%) | ND (^ <4%) | ND (^ <4%) | ND (^ <4%) | ND (^ <4%) | ND (^ <4%) | – | ND (^ <4%) | + (≥4%) | + (≥4%) | – | ND (^ <4%) | – | – | – | – | ND (^ <4%) | – | – |
| CCc1scc2c1CCC(NC)C2 (single isomer, unassigned) [Compound 113, 1-ethyl-N-methyl-4,5,6,7-tetrahydro-2-benzothiophen-5-amine hydrochloride] | 0.3 | ND (^ <4%) | ND (^ <4%) | – | ND (^ <4%) | ND (^ <4%) | ND (^ <4%) | ND (^ <4%) | ND (^ <4%) | + (≥4%) | – | – | ND (^ <4%) | ++++ (≥74%) | – | – | – | – | ND (^ <4%) | – |
| CCc1scc2c1CCC(NC)C2 (single isomer, unassigned) [Compound 114, 1-ethyl-N-methyl-4,5,6,7-tetrahydro-2-benzothiophen-5-amine hydrochloride] | 3 | ND (^ <4%) | ND (^ <4%) | – | ND (^ <4%) | ND (^ <4%) | ND (^ <4%) | ND (^ <4%) | ND (^ <4%) | +++ (≥49%) | – | – | ND (^ <4%) | + (≥4%) | – | – | – | – | ND (^ <4%) | – |
| CCc1scc2c1CC(NC)CC2 (single isomer, unassigned) [Compound 115, 3-ethyl-N-methyl-4,5,6,7-tetrahydro-2-benzothiophen-5-amine hydrochloride] | – | ND (^ <4%) | ND (^ <4%) | – | ND (^ <4%) | ND (^ <4%) | ND (^ <4%) | ND (^ <4%) | ND (^ <4%) | – | – | – | ND (^ <4%) | ++++ (≥74%) | – | – | 3 | – | ND (^ <4%) | ND (^ <4%) |
| CCc1scc2c1CC(NC)CC2 (single isomer, unassigned) [Compound 116, 3-ethyl-N-methyl-4,5,6,7-tetrahydro-2-benzothiophen-5-amine hydrochloride] | <3 | ND (^ <4%) | ND (^ <4%) | – | ND (^ <4%) | ND (^ <4%) | ND (^ <4%) | ND (^ <4%) | ND (^ <4%) | – | – | – | ND (^ <4%) | ND (^ <4%) | – | – | – | – | ND (^ <4%) | ND (^ <4%) |
| CCc1sc(CC)c2c1CCC(NC)C2 (single isomer, unassigned) [Compound 117, 1,3-diethyl-N-methyl-4,5,6,7-tetrahydro-2-benzothiophen-5-amine hydrochloride] | – | ND (^ <4%) | ND (^ <4%) | ND (^ <4%) | ND (^ <4%) | ND (^ <4%) | ND (^ <4%) | ND (^ <4%) | ND (^ <4%) | – | – | ND (^ <4%) | – | – | – | – | > 3 | – | ND (^ <4%) | ND (^ <4%) |
